Measurements from patent publication US20190119193A1, “COMPOSITION FOR REGULATING PLANT GROWTH, METHOD FOR TREATING PLANTS THEREWITH, AND ACTIVE INGREDIENT THEREOF” (Ivan Aleksandrovich Starikov, priority 2016, published 2019).

System: alfalfa seeds (“Vega” variety)
Assay: Laboratory tests of DMOA and DEOA for alfalfa seeds
Assay type: in vivo
Conditions: for Germinative energy: day 3; for Germinative capacity / Number of lateral roots / Sprout height / Taproot length: day 7
Experimental: After that DMOA and DEOA were dissolved in dimethyl sulfoxide to give solutions of 10 g/L concentration, then water was added to give aqueous solutions of DMOA with concentrations of 5.5·10^−5 M, 5.5·10^−6 M, 5.5·10^−7 M, 5.5·10^−8 M, 5.5·10^−9 M and DEOA with concentrations of 4.8·10^−5 M, 4.8·10^−6 M, 4.8·10^−7 M, 4.8·10^−8 M, 4.8·10^−9 M.
The obtained aqueous solutions of DMOA and DEOA were tested in the Scientific Center of Soil-Ecological Reasearch of the Federal State-Funded Educational Institution of Higher Education “Russian State Agrarian University—Moscow Agricultural Academy named after K. A. Timiryazev” (Moscow, 2015) according to the method described by T. A. Sergeeva (Method of laboratory testing of herbicides, Plant protection, 1963, No. 2, pp. 42-43). The primary laboratory screening of DMOA and DEOA was carried out on the seeds of five different crops: sunflower of “Voronezh 638” variety, soybean of “Vilana” variety, alfalfa of “Vega” variety, cucumber of “Nezhinsky” variety and tomato of “Volgogradets” variety.
Water was used as a reference.
A single experiment was carried out in a Petri dish. A circle of filter paper was laid at the bottom of the dish and treated with 5 ml of the work solution selected for the experiment. After that 25 seeds were uniformly laid on the surface of the treated filter paper. The Petri dish was kept at a temperature of 21-23° C. with illumination by fluorescent lamps for 7 days. The fourfold replication of the experiment within a single variant was applied.
The experiment identified the number and percentage of normally germinated seeds on day 3 (germinative energy) and on day 7 (germinative capacity) after the beginning of the experiment. On day 7 the main biometric parameters were also measured: sprout height (mm), taproot length (mm) and number of lateral roots (pcs).
The results were processed with the method of variance analysis with the help of STRAZ software in order to get the LSD0.05 (least significant difference between the test results on 5% significance level).

## CCOC(=O)C=C([O-])C(=O)OCC.[Na+] [DEOA, sodium salt of diethyl ester of oxaloacetic acid]
4.8 · 10^−5 M
  Germinative energy: 93%
  Germinative capacity: 97%
  Number of lateral roots: 0.1 pcs.
  Sprout height: 34.9 ↑↑ mm
  Taproot length: 41.9 ↑ mm
4.8 · 10^−6 M
  Germinative energy: 73%
  Germinative capacity: 80%
  Number of lateral roots: 0.0 pcs.
  Sprout height: 32.5 ↑ mm
  Taproot length: 37.5 ↑ mm
4.8 · 10^−7 M
  Germinative energy: 88%
  Germinative capacity: 93%
  Number of lateral roots: 0.5 pcs.
  Sprout height: 33.5 ↑ mm
  Taproot length: 32.2 mm
4.8 · 10^−8 M
  Germinative energy: 73%
  Germinative capacity: 97%
  Number of lateral roots: 0.1 pcs.
  Sprout height: 32.4 ↑ mm
  Taproot length: 42.3 ↑ mm
4.8 · 10^−9 M
  Germinative energy: 80%
  Germinative capacity: 87%
  Number of lateral roots: 0.7 ↑ pcs.
  Sprout height: 28.5 mm
  Taproot length: 34.6 mm

## Sodium salt of dimethyl ester of oxaloacetic acid [DMOA]
5.5 · 10^−5 M
  Germinative energy: 93%
  Germinative capacity: 100 ↑ %
  Number of lateral roots: 0.6 ↑ pcs.
  Sprout height: 30.0 mm
  Taproot length: 28.1 mm
5.5 · 10^−6 M
  Germinative energy: 88%
  Germinative capacity: 100 ↑ %
  Number of lateral roots: 0.7 ↑ pcs.
  Sprout height: 29.0 mm
  Taproot length: 30.9 mm
5.5 · 10^−7 M
  Germinative energy: 88%
  Germinative capacity: 93%
  Number of lateral roots: 0.6 ↑ pcs.
  Sprout height: 28.9 mm
  Taproot length: 31.3 mm
5.5 · 10^−8 M
  Germinative energy: 98 ↑ %
  Germinative capacity: 93%
  Number of lateral roots: 0.5 ↑ pcs.
  Sprout height: 28.9 mm
  Taproot length: 31.2 mm
5.5 · 10^−9 M
  Germinative energy: 88%
  Germinative capacity: 100 ↑ %
  Number of lateral roots: 0.6 ↑ pcs.
  Sprout height: 30.1 mm
  Taproot length: 35.6 mm
